From article PMC7310833, “Structural and biochemical characterization of a novel thermophilic Coh01147 protease” (PLoS ONE, 2020)

Target: T1, protease 1147 (Cohnella sp. A01, UniProt A0A5J6KIY6)
T1 construct: full length, 169 residues, no signal peptide, C-terminal His-tag (pET26b(+)), E. coli BL21 (DE3), about 18 kDa on SDS-PAGE; N-terminus from primer MKKVAFL; Ni-NTA
T1 sequence (A0A5J6KIY6 1-169): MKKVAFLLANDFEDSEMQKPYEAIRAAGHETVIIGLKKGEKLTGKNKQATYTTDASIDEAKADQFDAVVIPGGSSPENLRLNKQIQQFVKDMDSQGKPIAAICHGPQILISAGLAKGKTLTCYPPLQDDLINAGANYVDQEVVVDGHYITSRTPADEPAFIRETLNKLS
Assay: casein hydrolysis, TCA-soluble A280
Type: biochemical
Details: […] and […] inhibitor; casein substrate; table prints NA, text says completely inhibited; […] C, pH […]

CC(C)C[C@H](NC(=O)[C@@H]1O[C@H]1C(=O)O)C(=O)NCCCCN=C(N)N [E-64, Trans-Epoxysuccinyl-L-leucylamido (4-guanidino) butane]
relative activity (%): completely inhibited by IAM, E-64, and leupeptin, which are the typical cysteine protease inhibitors
